Here are results for ten molecules from US10131653B2, “Heterocyclic compound” (TAKEDA PHARMACEUTICAL COMPANY LIMITED, priority 2015, dated 2018).

The target of one assay is T1, human OX1 receptor (Homo sapiens, UniProt O43613).
T1 construct: expressed in transfected cells; host or cells: CHO cells
T1 sequence (O43613 1-425): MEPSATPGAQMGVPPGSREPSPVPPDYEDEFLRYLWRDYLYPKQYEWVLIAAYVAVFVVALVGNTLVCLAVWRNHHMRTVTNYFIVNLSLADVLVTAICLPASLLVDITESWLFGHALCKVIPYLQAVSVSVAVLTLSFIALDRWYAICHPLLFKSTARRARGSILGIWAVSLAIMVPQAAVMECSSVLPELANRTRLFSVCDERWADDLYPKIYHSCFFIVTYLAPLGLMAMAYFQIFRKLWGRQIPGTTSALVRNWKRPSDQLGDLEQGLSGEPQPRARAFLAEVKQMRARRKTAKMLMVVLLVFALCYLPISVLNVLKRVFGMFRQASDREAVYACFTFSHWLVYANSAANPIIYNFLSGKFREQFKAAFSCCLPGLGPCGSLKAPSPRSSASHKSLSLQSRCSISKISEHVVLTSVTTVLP
The assay can be described thus: Measurement of orexin receptor antagonistic activity (calcium fluorescence, FLIPRtetra). The class given is cell-based. The note with it: CHO, 10 μM test compound; CHO cells expressing human OX1 receptor; OX-A 1 nM; read-out: Human Orexin1 receptor inhibition (at 10 μM). The gist of the method:
(§1)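 Calcium fluorescence measured by FLIPRtetra every second for 2 min after orexin-A challenge, 1 nM final for OX1 and 0.3 nM final for OX2. Receptor-expressing CHO cells received compound in HEPES-buffered HBSS with 0.1% BSA just before agonist.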

The target of a further assay is T2, human OX2 receptor (Homo sapiens, UniProt O43614).
T2 construct: expressed in transfected cells; host or cells: CHO cells
T2 sequence (O43614 1-444): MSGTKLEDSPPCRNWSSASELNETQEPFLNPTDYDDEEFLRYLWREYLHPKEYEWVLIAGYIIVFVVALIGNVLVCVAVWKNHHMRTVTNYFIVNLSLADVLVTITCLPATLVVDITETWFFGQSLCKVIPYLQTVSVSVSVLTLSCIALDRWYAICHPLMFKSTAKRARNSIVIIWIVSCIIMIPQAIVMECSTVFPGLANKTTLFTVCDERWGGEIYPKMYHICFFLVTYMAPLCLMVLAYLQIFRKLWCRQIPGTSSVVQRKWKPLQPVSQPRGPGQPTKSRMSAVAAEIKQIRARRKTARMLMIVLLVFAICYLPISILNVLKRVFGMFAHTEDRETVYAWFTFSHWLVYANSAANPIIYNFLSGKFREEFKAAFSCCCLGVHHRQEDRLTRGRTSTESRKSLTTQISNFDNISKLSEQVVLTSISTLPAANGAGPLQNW
The description is as above. Type of assay: cell-based. The note with it: CHO, 10 μM test compound; CHO cells expressing human OX2 receptor; OX-A 0.3 nM; read-out: Human Orexin2 receptor inhibition (at 10 μM). The gist of the method:
as §1

The term inhibition denotes the change of the read-out against control, counted positive when it falls.

Structures are written as SMILES. Structures can show the parent of a compound that is named as a salt.

As for `Cc1ccc(-n2nccn2)c(C(=O)N2[C@H](C)CON(c3cc(C)nc(C(F)(F)F)n3)C[C@@H]2C)c1` [Example 177, ((4S,6R)-4,6-dimethyl-2-(6-methyl-2-(trifluoromethyl)pyrimidin-4-yl)-1,2,5-oxadiazepan-5-yl) (5-methyl-2-(2H-1,2,3-triazol-2-yl)phenyl)methanone], the inhibition at 10 µM on human OX1 receptor came out at 102%; at human OX2 receptor, 106%.
For `Cc1nc(N2CCN(C(=O)c3cc(F)c(F)cc3-n3nccn3)C[C@H](C)O2)cc(C(F)(F)F)n1` [Example 107, (4,5-difluoro-2-(2H-1,2,3-triazol-2-yl)phenyl)((7S)-7-methyl-2-(2-methyl-6-(trifluoromethyl)pyrimidin-4-yl)-1,2,5-oxadiazepan-5-yl)methanone], in that order: 37% and 94%.
The like results for `Cc1cc(C)nc(N2CCN(C(=O)c3ccccc3C#N)CCO2)n1` [Example 45, 2-((2-(4,6-dimethylpyrimidin-2-yl)-1,2,5-oxadiazepan-5-yl)carbonyl)benzonitrile] were, in that order, 16% and 19%.
The like results for `Cc1cc(N2CCN(C(=O)c3cc(F)ccc3-c3nccs3)C[C@H](C)O2)nc(C)n1` [Example 87, ((7S)-2-(2,6-dimethylpyrimidin-4-yl)-7-methyl-1,2,5-oxadiazepan-5-yl)(5-fluoro-2-(1,3-thiazol-2-yl)phenyl)methanone hydrochloride] were, in that order, 81% and 102%.
Turning to `COc1cccc(N2CCN(C(=O)c3cc(C)ccc3-n3nccn3)[C@H](C)CO2)n1` [Example 126, ((6R)-2-(6-methoxypyridin-2-yl)-6-methyl-1,2,5-oxadiazepan-5-yl) (5-methyl-2-(2H-1,2,3-triazol-2-yl)phenyl)methanone], the inhibition at 10 µM on human OX1 receptor came out at 96%; on human OX2 receptor it was 97%.
For `Cc1nc(N2C[C@H](C)N(C(=O)c3cc(Cl)ccc3-n3nccn3)[C@H](C)CO2)cc(C(F)(F)F)n1` [Example 183, (5-chloro-2-(2H-1,2,3-triazol-2-yl)phenyl)((4S,6R)-4,6-dimethyl-2-(2-methyl-6-(trifluoromethyl)pyrimidin-4-yl)-1,2,5-oxadiazepan-5-yl)methanone], in that order: 105% and 103%.
The like results for `Cc1ccc(-n2nccn2)c(C(=O)N2[C@H](C)CON(c3cc(C(F)F)nc(C)n3)C[C@@H]2C)c1` [Example 179, ((4S,6R)-2-(6-(difluoromethyl)-2-methylpyrimidin-4-yl)-4,6-dimethyl-1,2,5-oxadiazepan-5-yl) (5-methyl-2-(2H-1,2,3-triazol-2-yl)phenyl)methanone] were, in that order, 102% and 98%.
The like results for `Cc1cc(N2CCN(C(=O)c3cc(Cl)ccc3-c3ncc(F)cn3)CCO2)nc(C)n1` [Example 224, (5-chloro-2-(5-fluoropyrimidin-2-yl)phenyl)(2-(2,6-dimethylpyrimidin-4-yl)-1,2,5-oxadiazepan-5-yl)methanone] were, in that order, 53% and 100%.
Consider `Cc1cc(C)nc(N2CCN(C(=O)c3ccccc3Cl)CCO2)n1` [Example 53, (2-chlorophenyl) (2-(4,6-dimethylpyrimidin-2-yl)-1,2,5-oxadiazepan-5-yl)methanone], for which the inhibition at 10 µM on human OX1 receptor amounted to 9%; on human OX2 receptor, 57%.
The like results for `Cc1nc(C(F)F)cc(N2CCN(C(=O)c3cc(F)ccc3-n3nccn3)C[C@H](C)O2)n1` [Example 100, ((7S)-2-(6-(difluoromethyl)-2-methylpyrimidin-4-yl)-7-methyl-1,2,5-oxadiazepan-5-yl)(5-fluoro-2-(2H-1,2,3-triazol-2-yl)phenyl)methanone] were, in that order, 42% and 102%.
